The source of these data is PubChem BioAssay AID825 (PCMD, 2007).

Results filed as inconclusive are left out. The source made the active and inactive calls. How the calls were made is not given here.

The target of the assay is Procathepsin L (Homo sapiens) (UniProt P07711). The experiment in a line: IC50 of CTSL protease blockers – biochemical, confirmation, dose response (AID 825). To be noted: purified cathepsin L enzyme activity, signal read-out.
Procathepsin L (Homo sapiens), sequence (P07711 114-288 limits assumed): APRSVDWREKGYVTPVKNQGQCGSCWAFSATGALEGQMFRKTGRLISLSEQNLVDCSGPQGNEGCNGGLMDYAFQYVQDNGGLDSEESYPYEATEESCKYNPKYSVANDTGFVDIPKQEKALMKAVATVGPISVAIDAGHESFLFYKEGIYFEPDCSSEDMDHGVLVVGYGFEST
Procathepsin L (Homo sapiens), sequence (P07711 292-333 limits assumed): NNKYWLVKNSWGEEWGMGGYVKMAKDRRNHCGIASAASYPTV

With `CC(=O)Nc1nc2n(n1)C(c1ccc(F)cc1)C=C(c1ccccc1)N2` (configuration not stated), the IC50 is > 50 µM (inactive).

Take `COc1ccc(OC)c(C2C(C#N)=C(N)Oc3cc(C)n(Cc4ccccn4)c(=O)c32)c1` (configuration not stated): the IC50 was > 50 µM (inactive).
